Laboratory results: patent publication US20130336950A1, “MATERIAL COMBINATION FOR TREATING INFLAMMATORY OR INFECTIOUS DISEASES” (priority 2010, published 2013)
Entries after “also recorded” stand apart in the source; their conditions may differ. Ends that are not written are not given here.

Legend:
[1] = test system: Bifidobacterium adolescentis; experiment: antimicrobial radial diffusion assay, Bif. adolescentis, with and without DTT; type: cell-based; conditions: for antimicrobial activity (diameter of the inhibition zones): anaerobic, 48 h
Experimental: (§1) During execution of the assay in 10 mM sodium phosphate with 0.3 mg/ml of trypticase soya broth (TSB) and 1% (w/v) agarose with low EEO (Sigma-Aldrich), incubation took place in anaerobic conditions with antimicrobial peptides and 0-2 mM DTT. The presence of a reducing environment was controlled by adding the redox indicator resazurin. After 48-h incubation, the diameter of the inhibition zones was measured and was evaluated statistically using GraphPad Prism 4.03 and Student's t-test.
(§2) Small concentrations of the reducing agent dithiothreitol (DTT) were added to the assay medium, whereas medium without DTT served as control.

[2] = test system: Bacteroides vulgatus; experiment: antimicrobial radial diffusion assay, Bacteroides vulgatus; type: cell-based; conditions: 48 h
Experimental: as §1, §2

[3] = molecular target: T1, human thioredoxin (Homo sapiens, UniProt P10599); experiment: thioredoxin reductase assay (reduction of hBD-1, RP-HPLC); type: biochemical; conditions: 10 μM hBD-1, 0.5-1.5 μM thioredoxin, 100 nM thioredoxin reductase, 0.8 mM NADPH, 30 minutes, 37° C.
T1 sequence (P10599 1-105): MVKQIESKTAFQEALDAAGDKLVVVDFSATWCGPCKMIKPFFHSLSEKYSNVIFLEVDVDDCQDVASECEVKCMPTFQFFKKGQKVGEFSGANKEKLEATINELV
Experimental: FIG. 4 Thioredoxin (TRX) co-localized with hBD-1 and is capable of catalyzing the reduction of hBD-1. (A) immuno-histochemistry staining of hBD-1 and thioredoxin of human colon sections. Magnification bars=100 μm. (B) 10 μM oxidized hBD-1 was incubated with or without 0.5, 1.0 and 1.5 μM human thioredoxin and 100 nM rat thioredoxin reductase for 30 minutes at 37° C. in 0.10 M potassium phosphate-2 mM EDTA, pH 7.0 buffer and 0.8 mM NADPH. Incubation assays were analyzed by RP-HPLC and the transformation of oxidized to reduced hBD-1 was observed. hBD-1 ox=oxidized hBD-1, hBD-1 red=reduced hBD-1. […] Formation of inhibition zones was investigated after incubation for 48 hours, representative assays are shown.
The thioredoxin reductase assay was carried out as follows: For this, oxidized hBD-1 was incubated with 0.5-1.5 μM thioredoxin or protein disulfide-isomerase in the presence of 100 nM thioredoxin reductase and 0.8 mM NADPH in 0.1 M […] phosphate buffer-2 mM EDTA. The incubation mixtures were analyzed by RP-HPLC, with which the transformation of oxidized to reduced hBD-1 peptide could be observed.

[4] = test system: Bifidobacterium adolescentis Ni3,29c; experiment: transmission electron microscopy of the bacteria; type: cell-based; conditions: 200 μg/ml, 2 hours, 37° C., anaerobic
Experimental: For transmission electron microscopy of the bacteria, approx. 2×10^8 CFU (colony forming units) of Bifidobacterium adolescentis Ni3,29c were incubated anaerobically for two hours at 37° C. in the absence or in the presence of 200 μg/ml synthetic defensin. The bacteria were centrifuged, fixed in prewarmed Karnovsky's solution and stored at 4° C. for 24 hours. After centrifugation, the pellet was embedded in 3.5% agarose at 37° C., coagulated at room temperature, cut into small blocks and fixed in Karnovsky's solution again. The post-fixing was based on 1.0% osmium tetroxide with 1.5% potassium ferrocyanide in 0.1 M cacodylate buffer. After embedding in glycidyl ether, the blocks were cut with an ultramicrotome (Ultracut, Reichert, Vienna, Austria). Ultrathin sections (30 nm) were applied on copper grids and analyzed with a Zeiss LIBRA 120 transmission electron microscope (Carl Zeiss, Oberkochen, Germany) at 120 kV.

[5] = test system: Escherichia coli K12; experiment: radial diffusion assay, Escherichia coli K12; type: cell-based; conditions: oxidized or reduced peptide 1.5 μg, medium without DTT, 48 h
Experimental: as §1
(§3) (FIG. 3A). […] Furthermore, the same assay was carried out with the Gram-positive strains Lactobacillus acidophilus and L. fermentum, and with the Gram-negative strain Bacteroides vulgatus and the facultatively anaerobic strain Escherichia coli K12 (FIG. 3B).

[6] = test system: Candida albicans; experiment: flow cytometry assay, depolarized yeasts, clinical Candida isolates; type: cell-based; conditions: 40 μg/ml, 90-minute incubation, 5 clinical isolates
Experimental: (A) 1.5 μg oxidized and reduced hBD-1 was incubated with Bifidobacterium spp., Lactobacillus spp., Bacteroides vulgatus (B) and Escherichia coli. For Lactobacilli, the amount of defensin was 3 μg. The formation of inhibition zones was investigated after 48 hours, representative radial diffusion assays from 3 experiments are shown. […] The proportion of depolarized yeasts after 90-minute incubation with reduced or oxidized hBD-1, measured with a flow cytometry assay, is shown. hBD-1 red=reduced hBD-1, hBD-1 ox=oxidized hBD-1. The mean values+standard deviation of two experiments, carried out in each case in duplicate, are shown, (D) cysteine amino acids in the hBD-1 peptide were exchanged for alanine or serine and the hydrophobicity of the hBD-1 variants was analyzed by RP-HPLC. (E) flow cytometry assay for detecting bacterial membrane depolarization of Bifidobacterium adolescentis after incubation with reduced or oxidized hBD-1. Squares show an incubation time of 30 minutes, circles a time of 90 minutes. […] Fixed bacteria were analyzed by transmission microscopy, magnification bars=200 nm.
Flow-cytometry antimicrobial assay, in which the membrane depolarization of the bacteria was measured, was carried out as described in: Nuding, S., et al., “Antibacterial activity of human defensins on anaerobic intestinal bacterial species: a major role of HBD-3.” Microbes. […]

[7] = test system: Bifidobacterium adolescentis, Bif. breve, Bif. longum and Bif. bifidum; experiment: radial diffusion assay, oxidized and reduced peptide against Bifidobacterium spp.; type: cell-based; conditions: oxidized or reduced peptide 1.5 μg, anaerobic, medium without DTT, 48 h
Experimental: as §1, §3

[8] = test system: Lactobacillus acidophilus and L. fermentum; experiment: radial diffusion assay, Lactobacilli; type: cell-based, Lactobacillus spp.; conditions: oxidized or reduced peptide 3 μg, medium without DTT, 48 h
Experimental: as §1, §3

[9] = test system: Bifidobacterium adolescentis; experiment: flow-cytometry antimicrobial assay, bacterial membrane depolarization; type: cell-based
Experimental: Flow-cytometry antimicrobial assay, in which the membrane depolarization of the bacteria was measured, was carried out as described in: Nuding, S., et al., “Antibacterial activity of human defensins on anaerobic intestinal bacterial species: a major role of HBD-3.” Microbes. Infect. 11 (3), 384-393 (2009).
In order to investigate whether the observed inhibition of growth of Gram-positive anaerobes is bacteriostatic or bactericidal, flow-cytometry antimicrobial assays were carried out with bacterial membrane depolarization as the reading system. […] This pointed to a rapid bactericidal effect of the linear hBD-1.

[10] = RP-HPLC analysis of hydrophobicity; type: physicochemical; conditions: water/acetonitrile gradient; reduced hBD-1 vs oxidized hBD-1, variants vs reduced hBD-1
Excerpt: For the high-performance liquid chromatography (HPLC) analysis, a system of the Agilent 1200 series and a Vydac 218TP-C18 column were used, using a water/acetonitrile gradient with trifluoroacetic acid as ion-pair reagent.

[11] = reducing conditions (DTT added, 1 mM or 2 mM)
[12] = with or without DTT (1 mM or 2 mM), 0.5-2.0 μg peptide
[13] = oxidized or reduced peptide 1.5 μg, medium without DTT
[14] = 30 minutes of incubation, 60 μg/μl

| Substance | antimicrobial activity (diameter of the inhibition zones) ([1]; medium without DTT) | antimicrobial activity (diameter of the inhibition zones) [1, 11] | antimicrobial activity (inhibition zones) [2, 12] | morphology of the bacterial cells [4] | antimicrobial activity (inhibition zones) [5] | antimicrobial activity (inhibition zones) [2, 13] | antifungal activity (proportion of depolarized yeasts) [6] | antimicrobial activity (inhibition zones) [7] | antimicrobial activity (inhibition zones) [8] | membrane depolarization of the bacteria [9, 14] | further results |
| --- | --- | --- | --- | --- | --- | --- | --- | --- | --- | --- | --- |
| hBD-1Δ30-36: shortened variant of hBD-1 without the seven C-terminal amino acids GKAKCCK (SEQ ID No. 1) (DHYNCVSSGGQCLYSACPIFTKIQGTCYR; ends and bridges not checked; cysteine pairing not given here; UniProt P60022 33-61, looked up, fragment) | unable to inhibit the growth | unable to inhibit the growth | – | – | – | – | – | – | – | – | – |
| human beta-defensin 1 (DHYNCVSSGGQCLYSACPIFTKIQGTCYRGKAKCCK; disulfide (positions not given here); also: three disulfides, pairing not given here) [hBD-1, synthetic human beta-defensin 1, antimicrobial peptide with three disulfide bridges] | no effect on the growth | antimicrobial activity only through reduction | did not show any antimicrobial activity; also recorded: growth-inhibiting effect was not observed | – | – | – | – | – | – | – | antimicrobial activity compared with hBD-3 ([1]; 2 mM DTT): as effective as hBD-3; antimicrobial activity ([1]; in the presence of 150 mM sodium chloride (data not shown)): disappeared; antimicrobial activity (diameter of the inhibition zones) ([1]; medium with 1 mM DTT): concentration-dependent inhibition zones; transformation of oxidized to reduced hBD-1 [3]: reduced by thioredoxin |
| human beta-defensin 3 (GIINTLQKYYCRVRGGRCAVLSCLPKEEQIGKCSTRGRKCCRRKK; UniProt P81534 23-67, looked up) [hBD-3, reference compound] | strong antimicrobial activity | slightly reduced antimicrobial activity; also recorded: reduced activity | concentration-dependent inhibition zones | mainly attacks the bacterial membrane | – | – | – | – | – | – | – |
| lysozyme [reference compound] | – | slightly reduced antimicrobial activity | – | – | – | – | – | – | – | – | – |
| oxidized hBD-1: fully oxidized hBD-1 possessing all disulfide bridges (DHYNCVSSGGQCLYSACPIFTKIQGTCYRGKAKCCK; disulfide (positions not given here); also: three disulfides, pairing not given here) | – | – | – | did not show morphological damage of any kind | antimicrobial activity; also recorded: sensitive | no effect | no action and not | did not show any antimicrobial activity | no effect at all | no significant depolarization | membrane depolarization of the bacteria ([9]; 90 minutes of incubation): no significant depolarization |
| reduced hBD-1: fully reduced, linear hBD-1 with free cysteine residues (DHYNCVSSGGQCLYSACPIFTKIQGTCYRGKAKCCK; Beta-defensin 1 reduced, free cysteines; UniProt P60022 33-68, looked up) | – | – | – | cellular disintegration | antimicrobial activity | no effect | active against 4 out of 5 clinical Candida isolates; also recorded: effective antifungal activity against four out of five strains | antimicrobial activity against all the strains tested | clear inhibition zones | 50% | hydrophobicity (RP-HPLC) [10]: more hydrophobic; also recorded: increase in the hydrophobicity; effectiveness compared with the oxidized form ([9]; flow cytometry, membrane depolarization): more effective |
